Tests used:
dog eye = assay: Hyperemia and ocular tolerability after intraocular administration in Beagle dogs; type: in vivo
Protocol: Microspheres or implant containing an anti-hypertensive agent was injected in one eye and placebo microspheres or implant was injected in the other eye as a control. IOP and hyperemia were monitored for multiweek periods. Ultra thin wall 25-27 gauge needles were used. When microspheres were used they were suspended in vehicle at 10% or 20% by weight.

[1] = system: dog eye intraocular pressure (IOP); assay: Percent change from baseline IOP after intraocular administration in Beagle dogs; type: in vivo; details: for IOP reduction maintained through: compared to fellow eye
Protocol: Examples 3 to 7 below set forth in vivo (Beagle dogs) studies carried out by intraocular injection of microspheres or implant, suspended in aqueous vehicle (2% carboxy methylcellulose [CMC], 0.1% Tween 80 in 0.9% saline) or in a high viscosity, high shear rate gel (i.e. a suitable high molecular weight, polymeric hyaluronic acid). Microspheres or implant containing an anti-hypertensive agent was injected in one eye and placebo microspheres or implant was injected in the other eye as a control. IOP and hyperemia were monitored for multiweek periods. Ultra thin wall 25-27 gauge needles were used. When microspheres were used they were suspended in vehicle at 10% or 20% by weight.

[2] = anterior intravitreal administration, dog

Which conjunctival hyperemia (dog eye; [2]) does the source give for CCCCC[C@H](O)c1ccc(N2C(=O)CC[C@@H]2COCc2ccc(C(=O)OC(C)C)s2)cc1 [Compound A, 5-{(R)-1-[4-((S)-1-Hydroxy-hexyl)-phenyl]-5-oxo-pyrrolidin-2-ylmethoxymethyl}-thiophene-2-carboxylic acid isopropyl ester] here?
The conjunctival hyperemia was “mild conjunctival hyperemia through day 3”.

What about the “ocular inflammation at follow up examinations” value (dog eye; anterior vitreous injection) of the same molecule?
The value was “no signs of ocular inflammation”.

What about the “ocular inflammation at follow up examinations” value (dog eye; intracameral injection) of the same molecule?
The value was “no signs of ocular inflammation”.

And the “subsequent conjunctival hyperemia recordings” value (dog eye; intracameral, after the first day)?
The value was 0.

And the “maximum conjunctival hyperemia score” value (dog eye; intracameral, near the site of injection, first day)?
Its value is “+0.5”.

What about the tolerability (dog eye; neat injections in the anterior chamber and anterior vitreous) of the same molecule?
The tolerability was “well tolerated”.

And the “IOP reduction maintained through” value ([1]; 50 microliter anterior vitreous injection)?
The value was 3 days.

And the “maximum IOP reduction from baseline” value ([1]; 50 microliter intracameral injection, 0.1% in normal saline)?
Its value is “about 50%”.

And the “IOP reduction maintained through” value ([1]; 50 microliter intracameral injection)?
The value was 3 days.

And the “maximum IOP reduction below baseline” value [1, 2]?
The value was “about 30%”.
